One series in a line: in vitro. To be noted: African green monkey. On the procedure: (§1) Vero-E6 (African green monkey kidney cells) was purchased from Harbin Veterinary Research Institute (Harbin, P. R. China). The cells were grown in monolayer culture with Dulbecco’s modified Eagle’s medium (DMEM) supplemented with 10% fetal calf serum (FCS), 100 U/mL penicillin and 100 μg/mL streptomycin. The monolayers were removed from their plastic surfaces and serially passaged whenever they became confluent. Cells were plated out onto 96-well culture plates for cytotoxicity and anti-IBV assays, and propagated at 37 °C in an atmosphere of 5 % CO2.
(§2) The supernatants were discarded, washed with PBS twice and MTT reagent (5 mg/mL in PBS) was added to each well, after incubated at 37 °C for 4 h, remove the supernatants, then 200 μL DMSO was added and incubated at 37 °C for another 30 min. After that the plates were read on an ELISA reader (Thermo Molecular Devices Co., Union City, USA) at 570/630 nm. The mean OD of the cell control wells was assigned a value of 100%. The maximal non-toxic concentration (TD0) and 50% cytotoxic concentration (CC50) were calculated by linear regression analysis of the dose-response curves generated from the data.

The subject of series [1] is IBV (Gray strain). The series can be described thus: Anti-IBV activity (inhibition of virus replication, MTT method). To be noted: Avian coronavirus, Vero, 72 h. In kind it is cell-based, Infectious bronchitis virus. On the procedure: The IBV Gray strain was purchased from National Control Institute of Veterinatory Bioproducts and Pharmaceuticals (Beijing, P. R. China). Virus was routinely grown on Vero-E6 cells. IBV-Gray stock cultures were prepared from supernatants of infected cells and stored at −80 °C.
Inhibition of virus replication was measured by MTT method. Serial dilution of the treated virus was adsorbed to the cells for 1 h at 37 °C. The residual inoculum was discared and infected cells were added with DMEM containing 2% FCS. Each assay was performed in eight replicates. After incubation for 72 h at 37 °C, the cultures were measured by MTT method as described above.
In general terms: Formazan colour is commonly taken as a measure of viable cells.

In series [2] the test system is IBV (Gray strain).
Protocol: The compound was aspirated and cells were washed immediately before the IBV inoculum was added. […] For analyzing the anti-IBV inhibition during the adsorption period, the same amount of IBV was mixed with the drug and added to the cells immediately. After 1h of adsorption at 37 °C, the inoculum was removed and DMEM supplemented with 2% FCS were added to the cells. […] Each assay was run in eight replicates. Ribavirin was used as a positive control.
Another series relates to Vero-E6 cells. As to the kind of experiment: in vitro. To be noted: Vero cells, 72 h, MTT. On the procedure:
as §1, §2

Where “and” joins values, the source holds several entries; their conditions need not be identical. Identical values can stand only once.

This note sets out measurements from article PMC6259611, “Comparative Anti-Infectious Bronchitis Virus (IBV) Activity of (-)-Pinene: Effect on Nucleocapsid (N) Protein” (Molecules, 2011).

As a reminder, the IC50 is the concentration needed to halve the response being measured. A word on the inhibition: it is how much of the control response was suppressed.

As for `CC1=CCC2CC1C2(C)C` (stereo not drawn) [(-)-α-pinene], in the series “in vitro”, the CC50 at 72 h is > 10000 µM. In the series on IBV (Gray strain) [1], this molecule gave an IC50 of 980 ± 250 µM. Moreover, in the series with IBV (Gray strain) [2], the inhibition is 87% and 67.6%.
`NC(=O)c1ncn([C@@H]2O[C@H](CO)[C@@H](O)[C@H]2O)n1` [Ribavirin, ribavirin, reference compound]: the CC50 at 72 h in “in vitro” is > 1000 µM. Further, the IC50 in the series with IBV (Gray strain) [1] was found to be 118 ± 20 µM. For the same molecule, the inhibition in the series with IBV (Gray strain) [2] came out at 90.2 ± 2.8%.
In the case of `C=C1CCC2CC1C2(C)C` (stereo not drawn) [(-)-β-pinene], in the series “in vitro”, the CC50 at 72 h is > 10000 µM. For the same molecule, in the series with Vero-E6 cells, the “TD0 (maximum noncytotoxic concentration)” value worked out at 6.09 ± 0.31 mM. For the same molecule, in the series on IBV (Gray strain) [1], half-maximal inhibition (IC50) was put at 1320 ± 110 µM. For the same molecule, in the series on IBV (Gray strain) [2], the inhibition was 81% and 55.4%.
